According to patent US10858365B2, “Triazolo-pyrimidine compounds and uses thereof” (Dizal (Jiangsu) Pharmaceutical Co., Ltd., priority 2018, dated 2020):

Legend:
Format in all cases: cell-based
hA1 = hA1 (Homo sapiens (Human), UniProt P30542); experiment: FLIPR inhibition assay in hADORA1/CHO (hA1 expressing) cells; conditions: hADORA1/CHO cells, FLIPR calcium, adenosine stimulation; read-out: cAMP & FLIPR IC50 (nM) hA1
How it was run: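 CHO cells expressing human A1 were plated at 1×10^4 cells/well the day before, then loaded with FLIPR Calcium 5 dye for 60 min at 37 °C, 5% CO2. Compounds were added at several concentrations for 400 s before stimulation with […] adenosine. The calcium signal was recorded by FLIPR.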

mA2a = mA2a (Mus musculus (Mouse), UniProt Q60613); experiment: cAMP inhibition assay in mA2a/CHO cells; conditions: adenosine stimulation, read-out: cAMP & FLIPR IC50 (nM) mA2a
Description: (§1) hA2a/CHO, hA2b/CHO and mA2a/CHO (Genscript) were plated at 5×10^3 cells/well into 384-well polystyrene plates at the day of experiment. Compounds were pre-incubated with cells for 30 min at 37° C., 5% CO2. Then […] adenosine was added to the cells and incubated for 30 min at 37° C., 5% CO2. Detection reagent (CISBIO) was added and the plates were incubated for 60 min at room temperature. The signal was captured by Envision.

hA2b = hA2b (Homo sapiens (Human), UniProt P29275); experiment: cAMP inhibition assay in hA2b/CHO cells; conditions: adenosine stimulation, read-out: cAMP & FLIPR IC50 (nM) hA2b
Description: as §1

hA2a = hA2a (Homo sapiens (Human), UniProt P29274); experiment: cAMP inhibition assay in hA2a/CHO cells; conditions: adenosine stimulation, read-out: cAMP & FLIPR IC50 (nM) hA2a
How it was run: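 CHO cells expressing human A2a, human A2b or mouse A2a, 5×10^3 cells/well, pre-incubated with compound 30 min at 37 °C, then stimulated with […] adenosine 30 min at 37 °C. cAMP read after 60 min room-temperature incubation with detection reagent.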

hA2a, sequence (P29274 whole entry): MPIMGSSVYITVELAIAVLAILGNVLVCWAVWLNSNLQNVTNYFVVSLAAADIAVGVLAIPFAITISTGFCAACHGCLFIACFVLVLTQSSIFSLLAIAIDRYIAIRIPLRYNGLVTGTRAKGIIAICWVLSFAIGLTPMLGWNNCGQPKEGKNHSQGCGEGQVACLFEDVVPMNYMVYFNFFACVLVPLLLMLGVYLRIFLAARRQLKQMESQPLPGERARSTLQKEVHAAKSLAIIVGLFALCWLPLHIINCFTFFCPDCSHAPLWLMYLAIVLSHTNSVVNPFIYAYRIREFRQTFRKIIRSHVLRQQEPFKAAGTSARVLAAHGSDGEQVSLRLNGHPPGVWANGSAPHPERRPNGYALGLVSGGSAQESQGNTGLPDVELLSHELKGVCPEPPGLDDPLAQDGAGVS
hA1, sequence (P30542 whole entry): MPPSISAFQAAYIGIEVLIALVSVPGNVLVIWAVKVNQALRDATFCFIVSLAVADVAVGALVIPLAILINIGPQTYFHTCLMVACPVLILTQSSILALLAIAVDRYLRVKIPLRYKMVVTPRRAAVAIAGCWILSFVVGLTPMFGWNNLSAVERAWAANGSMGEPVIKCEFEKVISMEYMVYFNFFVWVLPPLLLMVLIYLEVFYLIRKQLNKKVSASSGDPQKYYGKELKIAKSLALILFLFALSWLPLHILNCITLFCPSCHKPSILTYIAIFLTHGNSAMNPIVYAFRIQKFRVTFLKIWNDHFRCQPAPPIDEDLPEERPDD
hA2b, sequence (P29275 whole entry): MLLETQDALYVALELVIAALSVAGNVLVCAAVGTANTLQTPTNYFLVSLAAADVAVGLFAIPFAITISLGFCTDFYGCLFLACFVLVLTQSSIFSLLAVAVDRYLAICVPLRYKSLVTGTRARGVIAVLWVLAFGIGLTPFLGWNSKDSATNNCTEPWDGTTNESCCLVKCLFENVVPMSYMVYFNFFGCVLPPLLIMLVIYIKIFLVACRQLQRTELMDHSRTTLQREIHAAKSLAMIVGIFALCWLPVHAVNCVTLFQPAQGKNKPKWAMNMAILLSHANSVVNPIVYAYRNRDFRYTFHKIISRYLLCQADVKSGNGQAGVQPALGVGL
mA2a, sequence (Q60613 whole entry): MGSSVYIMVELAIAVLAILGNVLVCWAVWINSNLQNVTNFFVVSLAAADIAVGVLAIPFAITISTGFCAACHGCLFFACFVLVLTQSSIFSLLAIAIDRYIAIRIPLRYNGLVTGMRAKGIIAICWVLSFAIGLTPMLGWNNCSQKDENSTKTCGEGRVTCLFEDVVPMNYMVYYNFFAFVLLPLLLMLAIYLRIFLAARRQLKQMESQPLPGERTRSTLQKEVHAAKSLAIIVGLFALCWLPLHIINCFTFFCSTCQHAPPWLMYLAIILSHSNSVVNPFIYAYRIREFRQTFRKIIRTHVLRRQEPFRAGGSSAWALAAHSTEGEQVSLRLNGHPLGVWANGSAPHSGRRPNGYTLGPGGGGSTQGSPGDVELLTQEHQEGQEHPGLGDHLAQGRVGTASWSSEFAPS

Q: For `Cc1ccc(-c2nc(N)n3nc(Cc4c(F)cccc4F)nc3c2-c2ccc(=O)n(C)c2)cn1` [Example 24, 5-[5-amino-2-[(2,6-difluorophenyl)methyl]-7-(6-methylpyridin-3-yl)-[1,2,4]triazolo[1,5-c]pyrimidin-8-yl]-1-methyl-1,2-dihydropyridin-2-one], which IC50 (hA1) is on record?
A: Its IC50 is 12 nM.

Q: What about the IC50 (mA2a) of the same molecule?
A: The IC50 was 162 nM.

Q: And the IC50 (hA2b)?
A: The IC50 was 631 nM.

Q: What about the IC50 (hA2a) of the same molecule?
A: Its IC50 is 58 nM.

Q: Which IC50 (hA1) does the source give for `Nc1nc(-c2ccc(F)cc2)c(-c2ccnc(C(F)(F)F)c2)c2nc(Cc3c(F)cccc3F)nn12` [Example 4, 2-[(2,6-difluorophenyl)methyl]-7-(4-fluorophenyl)-8-[2-(trifluoromethyl)pyridin-4-yl]-[1,2,4]triazolo[1,5-c]pyrimidin-5-amine] here?
A: Its IC50 is 511 nM.

Q: What about the IC50 (mA2a) of the same molecule?
A: Its IC50 is 24 nM.

Q: What about the IC50 (hA2b) of the same molecule?
A: Its IC50 is 254 nM.

Q: And the IC50 (hA2a)?
A: Its IC50 is 52 nM.

Q: What does the source list for `Cc1cc(-c2c(-c3ccc(F)cc3)nc(N)n3nc(Cc4ncccc4F)nc23)cn(C)c1=O` [Example 29, 5-(5-amino-7-(4-fluorophenyl)-2-((3-fluoropyridin-2-yl)methyl)-[1,2,4]triazolo[1,5-c]pyrimidin-8-yl)-l,3-dimethylpyridin-2(1H)-one]?
A: IC50 (hA1): 4.3 nM; IC50 (mA2a): 5.1 nM; IC50 (hA2b): 91 nM; IC50 (hA2a): 3.8 nM

Q: What does the source list for `Cn1cnc2ccc(-c3c(-c4ncco4)nc(N)n4nc(Cc5ncccc5F)nc34)cc21` [Example 90, 2-((3-fluoropyridin-2-yl)methyl)-8-(1-methyl-1H-benzo[d]imidazol-6-yl)-7-(oxazol-2-yl)-[1,2,4] triazolo[1,5-c]pyrimidin-5-amine]?
A: IC50 (hA1): 72 nM; IC50 (mA2a): 3.5 nM; IC50 (hA2b): 48 nM; IC50 (hA2a): 1.8 nM

Q: For `Cc1cnc(-c2nc(N)n3nc(Cc4c(F)cccc4F)nc3c2-c2ccc(=O)n(C)c2)o1` [Example 26, 5-(5-amino-2-(2,6-difluorobenzyl)-7-(5-methyloxazol-2-yl)-[l,2,4]triazolo[l,5-c]pyrimidin-8-yl)-1-methylpyridin-2(1H)-one], which IC50 (hA1) is on record?
A: The IC50 was 33 nM.

Q: What about the IC50 (mA2a) of the same molecule?
A: The IC50 was 34 nM.

Q: What about the IC50 (hA2b) of the same molecule?
A: The IC50 was 457 nM.

Q: And the IC50 (hA2a)?
A: The IC50 was 15 nM.

Q: With `Cc1cc(-c2c(-c3ncco3)nc(N)n3nc(Cc4ncccc4F)nc23)cc(OC(F)F)n1` [Example 87] as the molecule, how does the IC50 (hA1) read?
A: The IC50 was 4050 nM.

Q: And the IC50 (mA2a)?
A: The IC50 was 90 nM.

Q: And the IC50 (hA2b)?
A: The IC50 was 5800 nM.

Q: What about the IC50 (hA2a) of the same molecule?
A: Its IC50 is 27 nM.

Q: What does the source list for `Cc1nccc(-c2c(-c3ccc(F)cc3)nc(N)n3nc(Cc4c(F)cccc4F)nc23)c1C` [Example 16, 2-(2,6-difluorobenzyl)-8-(2,3-dimethylpyridin-4-yl)-7-(4-fluorophenyl)-[1,2,4]triazolo[1,5-c] pyrimidin-5-amine]?
A: IC50 (hA1): 205 nM; IC50 (mA2a): 758 nM; IC50 (hA2b): 125 nM; IC50 (hA2a): 174 nM

Q: What does the source list for `Cn1cc(-c2c(-c3cc(F)cc(F)c3)nc(N)n3nc(Cc4ncccc4F)nc23)ccc1=O` [Example 76, 5-(5-amino-7-(3,5-difliiorophenyl)-2-((3-fluoropyridin-2-yl)methyl)-[1,2,4]triazolo[1,5-c]pyrimidin-8-yl)-1-methylpyridin-2(1H)-one]?
A: IC50 (hA1): 8.8 nM; IC50 (mA2a): 19 nM; IC50 (hA2b): 253 nM; IC50 (hA2a): 7.9 nM

Q: Which results are given for `Cc1cnc2ccc(-c3c(-n4ccc(F)n4)nc(N)n4nc(Cc5ncccc5F)nc34)cn12` [Example 116, 7-(3-fluoro-1H-pyrazol-1-yl)-2-((3-fluoropyridin-2-yl)methyl)-8-(3-methylimidazo[l,2-a]pyridin-6-yl)-[l,2,4]triazolo[l,5-c]pyrimidin-5-amine]?
A: IC50 (hA1): 7.9 nM; IC50 (mA2a): 0.2 nM; IC50 (hA2b): 12.2 nM; IC50 (hA2a): 0.2 nM

Q: Which results are given for `Cc1cnc2ccc(-c3c(-n4cc(F)cn4)nc(N)n4nc(Cc5ncccc5F)nc34)cn12` [Example 117, 7-(4-fluoro-1H-pyrazol-1-yl)-2-((3-fluoropyridin-2-yl)methyl)-8-(3-methylimidazo[l,2-a]pyridin-6-yl)-[1,2,4]triazolo[1,5-c]pyrimidin-5-amine]?
A: IC50 (hA1): 9.7 nM; IC50 (mA2a): 0.5 nM; IC50 (hA2b): 16.4 nM; IC50 (hA2a): 0.2 nM

Q: What does the source list for `Cc1coc(-c2nc(N)n3nc(Cc4c(F)cccc4F)nc3c2-c2ccc(=O)n(C)c2)n1` [Example 27, 5-(5-amino-2-(2,6-difluorobenzyl)-7-(4-methyloxazol-2-yl)-[1,2,4]triazolo[1,5-c]pyrimidin-8-yl)-1-methylpyridin-2(1H)-one]?
A: IC50 (hA1): 112 nM; IC50 (mA2a): 245 nM; IC50 (hA2b): 10000 nM; IC50 (hA2a): 139 nM

Q: What does the source list for `Cn1cc(-c2c(-c3ccc(F)cc3)nc(N)n3nc(Cc4ncc(F)cc4F)nc23)ccc1=O` [Example 67, 5-(5-amino-2-((3,5-difluoropyridin-2-yl)methyl)-7-(4-fluorophenyl)-[1,2,4]triazolo[1,5-c]pyrimidin-8-yl)-1-methylpyridin-2(1H)-one]?
A: IC50 (hA1): 13 nM; IC50 (mA2a): 21 nM; IC50 (hA2b): 3200 nM; IC50 (hA2a): 22 nM

Q: With `Cc1cnc2ccc(-c3c(N4CCC5(COC5)C4)nc(N)n4nc(Cc5ncccc5F)nc34)cn12` [Example 110, 2-((3-fluoropyridin-2-yl)methyl)-8-(3-methylimidazo[1,2-a]pyridin-6-yl)-7-(2-oxa-6-azaspiro[3.4]octan-6-yl)-[l,2,4]triazolo[l,5-c]pyrimidin-5-amine] as the molecule, how does the IC50 (hA1) read?
A: Its IC50 is 85.9 nM.

Q: What about the IC50 (mA2a) of the same molecule?
A: Its IC50 is 7190 nM.

Q: And the IC50 (hA2b)?
A: The IC50 was > 10000 nM.

Q: And the IC50 (hA2a)?
A: Its IC50 is 795 nM.

Q: Which IC50 (hA1) does the source give for `Cc1cc(-c2c(-c3ncco3)nc(N)n3nc(Cc4c(F)cccc4F)nc23)cc(C2CC2)n1` [Example 84, 8-(2-cyclopropyl-6-methylpyridin-4-yl)-2-(2,6-difluorobenzyl)-7-(oxazol-2-yl)-[1,2,4]triazolo[1,5-c]pyrimidin-5-amine] here?
A: Its IC50 is 2720 nM.

Q: What about the IC50 (mA2a) of the same molecule?
A: The IC50 was 428 nM.

Q: What about the IC50 (hA2b) of the same molecule?
A: The IC50 was 10000 nM.

Q: And the IC50 (hA2a)?
A: The IC50 was 60 nM.

Q: With `Cc1cc(-c2c(-c3ncco3)nc(N)n3nc(Cc4c(F)cccc4F)nc23)cc(C)n1` [Example 33, 2-[(2,6-difluorophenyl)methyl]-8-(2,6-dimethylpyridin-4-yl)-7-(1,3-oxazol-2-yl)-[1,2,4]triazolo[1,5-c]pyrimidin-5-amine] as the molecule, how does the IC50 (hA1) read?
A: The IC50 was 6940 nM.

Q: What about the IC50 (mA2a) of the same molecule?
A: The IC50 was 109 nM.

Q: And the IC50 (hA2b)?
A: Its IC50 is 10000 nM.

Q: And the IC50 (hA2a)?
A: Its IC50 is 18 nM.

Q: What does the source list for `Cc1cc(-c2c(-c3ncco3)nc(N)n3nc(Cc4c(F)cccc4F)nc23)cc(N)n1` [Example 81, 8-(2-amino-6-methylpyridin-4-yl)-2-(2,6-difluor obenzyl)-7-(oxazol-2-yl)-[1,2,4]triazolo[1,5-c] pyrimidin-5-amine]?
A: IC50 (hA1): 5320 nM; IC50 (mA2a): 164 nM; IC50 (hA2b): 9090 nM; IC50 (hA2a): 49 nM

Q: What does the source list for `Nc1nc(-c2ccc(F)cc2)c(-c2ccc(=O)n(CCO)c2)c2nc(Cc3c(F)cccc3F)nn12` [Example 65, 5-(5-amino-2-(2,6-difluorobenzyl)-7-(4-fluorophenyl)-[1,2,4]triazolo[1,5-c]pyrimidin-8-yl)-1-(2-hydroxyethyl)pyridin-2(1H)-one]?
A: IC50 (hA1): 17 nM; IC50 (mA2a): 0.6 nM; IC50 (hA2b): 14 nM; IC50 (hA2a): 0.2 nM

Q: Which results are given for `Nc1nc(-c2ccc(F)cc2)c(-c2ccc(=O)n(CCO)c2)c2nc(Cc3ncccc3F)nn12` [Example 95, 5-(5-amino-7-(4-fluorophenyl)-2-((3-fluoropyridin-2-yl)methyl)-[1,2,4]triazolo[1,5-c]pyrimidin-8-yl)-l-(2-hydroxyethyl)pyridin-2(1H)-one]?
A: IC50 (hA1): 27 nM; IC50 (mA2a): 8.9 nM; IC50 (hA2b): 241 nM; IC50 (hA2a): 3.7 nM

Q: With `Cn1cnc2ccc(-c3c(-c4ncco4)nc(N)n4nc(Cc5c(F)cccc5F)nc34)cc21` [Example 91, 2-(2,6-difluorobenzyl)-8-(1-methyl-1H-benzo[d]imidazol-6-yl)-7-(oxazol-2-yl)-[1,2,4]triazolo[1,5-c]pyrimidin-5-amine] as the molecule, how does the IC50 (hA1) read?
A: Its IC50 is 206 nM.

Q: And the IC50 (mA2a)?
A: Its IC50 is 5.1 nM.

Q: What about the IC50 (hA2b) of the same molecule?
A: The IC50 was 102 nM.

Q: What about the IC50 (hA2a) of the same molecule?
A: Its IC50 is 2.6 nM.
